From patent US4431815A, “1-[3-(2,4-Dichlorophenyl)propyl]imidazole and salts thereof” (Burroughs Wellcome Co., priority 1983, dated 1984)
Read-outs that look alike come from different tables or passages of the source.

Key:
TXA2 synthetase = target: T1, TXA2 synthetase (Equus caballus, UniProt A0A9L0T8T9); assay: Inhibition of thromboxane (TXA2) synthetase in homogenised horse platelets, labelled arachidonic acid, thromboxane B2 measured by TLC; format: biochemical; settings: horse platelet homogenate, pH 7.4
T1 construct: labelled arachidonic acid substrate, thromboxane B2 measured by TLC
T1 sequence (A0A9L0T8T9 2-534): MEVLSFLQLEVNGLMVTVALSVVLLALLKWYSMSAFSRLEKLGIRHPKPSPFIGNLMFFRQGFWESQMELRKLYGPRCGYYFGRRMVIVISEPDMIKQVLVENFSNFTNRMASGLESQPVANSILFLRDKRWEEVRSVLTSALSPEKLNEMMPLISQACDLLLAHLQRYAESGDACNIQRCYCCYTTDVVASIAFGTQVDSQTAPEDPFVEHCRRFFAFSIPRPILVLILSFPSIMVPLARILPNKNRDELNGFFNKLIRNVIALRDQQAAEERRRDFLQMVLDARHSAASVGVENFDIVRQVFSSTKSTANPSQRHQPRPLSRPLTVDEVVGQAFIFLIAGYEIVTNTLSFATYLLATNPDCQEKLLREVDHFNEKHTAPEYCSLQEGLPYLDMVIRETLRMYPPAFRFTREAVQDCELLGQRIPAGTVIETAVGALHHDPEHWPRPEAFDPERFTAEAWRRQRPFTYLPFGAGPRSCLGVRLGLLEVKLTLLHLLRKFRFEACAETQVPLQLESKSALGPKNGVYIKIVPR
Experimental: (§1) Horse platelets were prepared from whole horse blood by differential centrifugation. Approximately 10^6 platelets were homogenised in 1 ml 100 mM Tris buffer pH 7.4. Various concentrations of active compound were added and the reaction sets incubated for 5 minutes at ambient temperature. To each tube was added 20 nM of arachidonic acid containing 10^6 DPM of labelled arachidonic acid and the tubes incubated for 3 minutes at 37° C. in a shaking water bath. After incubation the radioactive products were extracted from the acidified aqueous phase with ethyl acetate and after concentration resolved by thin layer chromatography on silica gel with chloroform/methanol/acetic acid/water (90:8:1:0.8) as a developing solvent. The amount of thromboxane produced was measured by scraping off the radioactive zone corresponding to thromboxane B2 and estimating the radioactivity in a liquid scintillation counter.
The concentration of active compound to reduce the enzyme activity by 50% (ED50) was established.
By the method of Biological results Example 7 above the ED50 and selectivity values were obtained for the compounds set out in Table B.

PGE, PGF and PGD = assay: Selectivity: amount of PGE, PGF and PGD produced (anti-aggregating prostaglandins), horse platelets; format: biochemical; settings: horse platelet homogenate
Experimental: as §1, with “Various concentrations of active compound were added and the reaction sets incubated for 5 minutes at ambient temperature.” left out
The greater the selectivity, the more of the anti-aggregating prostaglandins are produced.
The ED50 and Selectivity results are shown in Table A in which 0 indicates no selectivity; + low selectivity: ++ medium selectivity; +++ high selectivity, and ++++ exceptionally high selectivity.

platelet aggregation = assay: Inhibition of platelet aggregation in vivo
platelet clumps = assay: Disaggregation of platelet clumps
[1] = test system: enzymic conversion of the endoperoxides (PGG2 and PGH2) to thromboxane A2 by platelet microsomes; settings: Moncada et al., Prostaglandins 1977; cited from earlier work
[2] = Table B, read-out: ED50 (concentration of active compound to reduce the enzyme activity by 50%) (converted)

IC50 (TXA2 synthetase; [2]) [µM] | Structure (SMILES) | SELECTIVITY (PGE, PGF and PGD; Table B) | further results
~17.4 | Cc1cccc(-n2ccnc2)c1C [1-(2,3-dimethylphenyl)imidazole] | ++ | 
 | Cc1cc(C)c(Cn2ccnc2)c(C)c1 [1-(2,4,6-Trimethylbenzyl)imidazole, 1-(2,4,6-trimethylbenzyl)imidazole] |  | inhibiting platelet aggregation in vivo (platelet aggregation): capable of inhibiting platelet aggregation in vivo; disaggregating platelet clumps (platelet clumps): capable of disaggregating platelet clumps; SELECTIVITY (PGE, PGF and PGD; Table A): ++
8.81 to 35.2 | Clc1ccc(Cn2ccnc2)c(Cl)c1 [1-(2,4-dichlorobenzyl)imidazole, 1-(2,4-Dichlorobenzyl)imidazole] |  | inhibiting platelet aggregation in vivo (platelet aggregation): capable of inhibiting platelet aggregation in vivo; disaggregating platelet clumps (platelet clumps): capable of disaggregating platelet clumps
2.6 | Clc1ccccc1Cn1ccnc1 [1-(2-chlorobenzyl)imidazole] | ++ | 
116 | c1ccc(CCn2ccnc2)cc1 [1-(2-phenylethyl)imidazole, 1-(2-Phenylethyl)imidazole] | + | 
< 26.8 | CC(Cn1ccnc1)c1ccccc1 (stereo not drawn) [1-(2-phenylpropyl)imidazole, 1-(2-Phenylpropyl)imidazole] |  | 
 | Cc1ccc(Cn2ccnc2)cc1C [1-(3,4-Dimethylbenzyl)imidazole] |  | SELECTIVITY (PGE, PGF and PGD; Table A): ++
~57.7 | Nc1cccc(Cn2ccnc2)c1 [1-(3-aminobenzyl)imidazole, 1-(3-Aminobenzyl)imidazole] | ++ | 
61.2 | Brc1cccc(Cn2ccnc2)c1 [1-(3-bromobenzyl)imidazole, 1-(3-Bromobenzyl)imidazole] | +++ | 
271 | O=[N+]([O-])c1cccc(Cn2ccnc2)c1 [1-(3-nitrobenzyl)imidazole, 1-(3-Nitrobenzyl)imidazole] |  | 
92.3 | C(=Cc1ccccc1)Cn1ccnc1 [1-(3-phenylprop-2-enyl)imidazole, 1-(3-Phenylprop-2-enyl)imidazole] |  | 
134 | c1ccc(CCCn2ccnc2)cc1 [1-(3-phenylpropyl)imidazole, 1-(3-Phenylpropyl)imidazole] | + | 
19.4 | Brc1ccc(Cn2ccnc2)cc1 [1-(4-bromobenzyl)imidazole, 1-(4-Bromobenzyl)imidazole] |  | 
159 | Fc1ccc(Cn2ccnc2)cc1 [1-(4-fluorobenzyl)imidazole, 1-(4-Fluorobenzyl)imidazole] |  | 
0.499 | CC(C)c1ccc(Cn2ccnc2)cc1 [1-(4-i-propylbenzyl)imidazole, 1-(4-i-Propylbenzyl)imidazole] | 0 | 
174 | Cc1ccc(Cn2ccnc2)cc1 [1-(4-methylbenzyl)imidazole, 1-(4-Methylbenzyl)imidazole] | + | 
 | Clc1ccc(C=CCn2ccnc2)c(Cl)c1 [1-[3-(2,4-Dichlorophenyl)prop-2-enyl]imidazole] |  | SELECTIVITY (PGE, PGF and PGD; Table A): +
2.35 | Clc1ccc(CCCn2ccnc2)c(Cl)c1 [1-[3-(2,4-Dichlorophenyl)propyl]imidazole] | ++ | inhibiting platelet aggregation in vivo (platelet aggregation): capable of inhibiting platelet aggregation in vivo; disaggregating platelet clumps (platelet clumps): capable of disaggregating platelet clumps; IC50 (TXA2 synthetase; Table A, read-out: ED50 (concentration of active compound to reduce the enzyme activity by 50%) (converted)): 1.96 µM; SELECTIVITY (PGE, PGF and PGD; Table A): ++
 | Clc1cccc(Cl)c1C=CCn1ccnc1 [1-[3-(2,6-Dichlorophenyl)prop-2-enyl]imidazole] |  | SELECTIVITY (PGE, PGF and PGD; Table A): +
 | c1ccc(Cn2ccnc2)cc1 [1-benzylimidazole, 1-Benzylimidazole] | +++ | inhibiting platelet aggregation in vivo (platelet aggregation): capable of inhibiting platelet aggregation in vivo; disaggregating platelet clumps (platelet clumps): capable of disaggregating platelet clumps; IC50 (TXA2 synthetase; read-out: ED50 (concentration of active compound to reduce the enzyme activity by 50%), Table B): 31.6 µM
 | Cn1ccnc1 [1-methylimidazole] |  | inhibition of the enzymic conversion of endoperoxides to thromboxane A2 [1]: some degree of inhibition
 | c1c[nH]cn1 [Imidazole] |  | inhibition of the enzymic conversion of endoperoxides to thromboxane A2 [1]: some degree of inhibition
